SMILES strings stand for the structures.

The target of the assay is T1, wild-type human melanocortin 4 receptor (WT-hMC4R) (Homo sapiens, UniProt P32245).
T1 construct: expressed in transfected cells; cDNA from UMR cDNA resource center
T1 sequence (P32245 whole entry): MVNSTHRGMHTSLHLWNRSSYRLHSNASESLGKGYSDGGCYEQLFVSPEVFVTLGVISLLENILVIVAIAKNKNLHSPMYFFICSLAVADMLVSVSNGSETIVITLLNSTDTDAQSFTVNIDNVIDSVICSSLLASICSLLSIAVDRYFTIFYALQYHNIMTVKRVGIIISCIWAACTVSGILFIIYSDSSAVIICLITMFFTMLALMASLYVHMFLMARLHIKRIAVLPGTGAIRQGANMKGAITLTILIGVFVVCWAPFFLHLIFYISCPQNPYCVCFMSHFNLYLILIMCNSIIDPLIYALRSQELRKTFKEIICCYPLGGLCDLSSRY
In words: Cyclic AMP assay (HTRF), antagonist competition against NDP-α-MSH. The assay is classed as cell-based. Particulars: HEK293T cells expressing double-tagged WT-hMC4R; cAMP accumulation; 1 hour compound then 4 nM NDP-α-MSH 30 min. As for the experimental part:
Intracellular cyclic 3′-5′ adenosine monophosphate (cAMP) accumulation was measured using a competitive immunoassay based on HTRF (Homogeneous Time-Resolved Fluorescence) technology (cAMP dynamic-2, Cis-Bio).
HEK293T stable cell line expressing double-tagged WT-hMC4R construct were collected and washed in cAMP buffer (1XD-PBS pH 7.4, 0.1% glucose). 40,000 cells/well were then dispensed in 96-well plates in cAMP buffer [1XD-PBS, 1% BSA, 0.1% Glucose, 0.75 mM 3-isobutyl-1methyl-xanthine (IBMX, Sigma)] and incubated either for antagonist competition assay: 1 hour at 37° C. with various concentrations of compound [0.01 nM-10 μM] followed by 30 min incubation at 37° C. with 4 nM of NDP-α-MSH (Sigma) or for agonist assay: 1 hour at 37° C. with various concentrations of compound [0.01 nM-10 μM]. 10,000 cells were transferred in 384-well plates, lysed and incubated with cAMP labeled with the dye d2 and anti-cAMP M-Antibody labeled with Cryptate following the manufacturer's protocol.
Reading of HTRF signal was performed on Artemis TR-FRET plate reader (Cosmo Bio).
All curve fitting was conducted using non-linear regression analyses from PRISM (version 4.0c, GraphPad Inc.) and the determination of Rmax and EC50 or IC50 parameters were obtained from sigmoidal dose-response phase (variable slope) equation.
A cDNA encoding a wild-type human MC4R with a 3 tandem copies of Hemaglutinine (HA) epitote sequence from UMR cDNA resource center was modified using known techniques in the art (e.g., PCR, cloning) to fused in frame at the C-terminal a venus-Yellow Fluorescent Protein (YFP) cDNA.
The resultant cDNA was then subcloned in eukaryotic expression vector, e.g. pcDNA 3.1(+) (Invitrogen).
The double tagged WT-hMC4R was transfected in HEK293T cells with lipofectamine (Invitrogen) following the manufacturer's instructions and permanently transfected clonal cell lines were selected by resistance to the neomycin analog G418.
HEK293T stable cell line expressing wild-type human melanocortin 4 receptor (WT-hMC4R) containing an N-terminal 3xHA epitope tag and an intracellular C-terminal venus-yellow fluorescent protein (v-YFP) were maintained at 37° C. in humidified air containing 5% CO2 in Dulbecoo's modified Eagle's medium (DMEM) supplemented with 10% fetal bovine serum (FBS), 100 U/ml penicillin/streptomycin (DMEM complete/10% FBS). Cells were generally at 70%-80% confluence on the day of assay.
In general terms: TR-FRET usually uses a lanthanide donor and a delayed reading to cut background.
On to `COC(=O)c1ccc(-c2nn3ccc(C(=O)N(CCC(C)C)CCC(C)C)cc3c2/C=C/CN2CCCCC2)cc1` [Example 43, (E)-Methyl 4-(5-(diisopentylcarbamoyl)-3-(3-(piperidin-1-yl)prop-1-en-1-yl)pyrazolo[1,5-a]pyridin-2-yl)benzoate], for which the IC50 was 500 to 1000 nM.
For the molecule `COC(=O)c1ccc(-c2nn3ccc(C(=O)N(CCC(C)C)CCC(C)C)cc3c2CCCN2CCCCC2)cc1` [Example 44], the IC50 lay in the range of 500 to 1000 nM.
Next, `CC(C)CCN(CCC(C)C)C(=O)c1ccn2nc(-c3ccc(Br)cc3)c(CCCN3CCCCC3)c2c1` [Example 45]: < 500 nM; `CC(C)CCN(CCC(C)C)C(=O)c1ccn2nc(-c3ccc(C(C)O)cc3)c(CCCN3CCCCC3)c2c1` (stereo not drawn) [Example 46, 2-(4-(1-Hydroxyethyl)phenyl)-N,N-diisopentyl-3-(3-(piperidin-1-yl)propyl)pyrazolo[1,5-a]pyridine-5-carboxamide]: < 500 nM; `CC(=O)c1ccc(-c2nn3ccc(C(=O)N(CCC(C)C)CCC(C)C)cc3c2CCCN2CCCCC2)cc1` [Example 47, 2-(4-Acetylphenyl)-N,N-diisopentyl-3-(3-(piperidin-1-yl)propyl)pyrazolo[1,5-a]pyridine-5-carboxamide]: 500 to 1000 nM.
Under `CCCCN(CCCC)C(=O)c1ccn2nc(-c3ccc(F)cc3)c(CCCN3CCCCC3)c2c1` [Example 48] stands 500 to 1000 nM.
Regarding `CC(C)CCN(CCC(C)C)C(=O)c1ccn2nc(-c3ccc(F)cc3)c(CCCN3CCCCC3)c2c1` [Example 49], the IC50 was < 500 nM.
Next, `CCCCCN(CCCCC)C(=O)c1ccn2nc(-c3ccc(F)cc3)c(CCCN3CCCCC3)c2c1` [Example 50]: 1000 to 5000 nM; `CCCCN(CCCC)C(=O)c1ccn2nc(-c3ccc(F)cc3)c(/C=C/CN3CCCCC3)c2c1` [Example 51]: 1000 to 5000 nM; `CC(C)CCN(CCC(C)C)C(=O)c1ccn2nc(-c3ccc(F)cc3)c(/C=C/CN3CCCCC3)c2c1` [Example 52]: 500 to 1000 nM.
`CCCCCN(CCCCC)C(=O)c1ccn2nc(-c3ccc(F)cc3)c(/C=C/CN3CCCCC3)c2c1` [Example 53] showed an IC50 of 1000 to 5000 nM.
`CCCCN(CCCC)C(=O)c1ccn2nc(-c3ccccc3)c(CCCN3CCCCC3)c2c1` [Example 54] returned an IC50 of 500 to 1000 nM.
`CC(C)CCN(CCC(C)C)C(=O)c1ccn2nc(-c3ccccc3)c(CCCN3CCCCC3)c2c1` [Example 55]: the IC50 is 1000 to 5000 nM.
Take `CCCCCN(CCCCC)C(=O)c1ccn2nc(-c3ccccc3)c(CCCN3CCCCC3)c2c1` [Example 56]: the IC50 is 500 to 1000 nM.
Under `CCCCN(CCCC)C(=O)c1ccn2nc(-c3ccccc3)c(/C=C/CN3CCCCC3)c2c1` [Example 57] stands 1000 to 5000 nM; under `CC(C)CCN(CCC(C)C)C(=O)c1ccn2nc(-c3ccccc3)c(/C=C/CN3CCCCC3)c2c1` [Example 58], 500 to 1000 nM.
`CCCCCN(CCCCC)C(=O)c1ccn2nc(-c3ccccc3)c(/C=C/CN3CCCCC3)c2c1` [Example 59] showed an IC50 of 1000 to 5000 nM.
`CCCCN(CCCC)C(=O)c1ccn2nc(-c3ccc(C)cc3)c(CCCN3CCCCC3)c2c1` [Example 60]: the IC50 is 500 to 1000 nM.
As to `Cc1ccc(-c2nn3ccc(C(=O)N(CCC(C)C)CCC(C)C)cc3c2CCCN2CCCCC2)cc1` [Example 61], the concentration for half-maximal inhibition (IC50) is < 500 nM.
`CCCCCN(CCCCC)C(=O)c1ccn2nc(-c3ccc(C)cc3)c(CCCN3CCCCC3)c2c1` [Example 62] had an IC50 of 1000 to 5000 nM.
The molecule `CCCCN(CCCC)C(=O)c1ccn2nc(-c3ccc(C)cc3)c(/C=C/CN3CCCCC3)c2c1` [Example 63] gave an IC50 of 500 to 1000 nM.
As to `Cc1ccc(-c2nn3ccc(C(=O)N(CCC(C)C)CCC(C)C)cc3c2/C=C/CN2CCCCC2)cc1` [Example 64], the IC50 was < 500 nM.
The molecule `CCCCCN(CCCCC)C(=O)c1ccn2nc(-c3ccc(C)cc3)c(/C=C/CN3CCCCC3)c2c1` [Example 65] registered an IC50 of 1000 to 5000 nM.
`CCCCN(CCCC)C(=O)c1ccn2nc(-c3cc(OC)c(OC)c(OC)c3)c(CCCN3CCCCC3)c2c1` [Example 66] came in with an IC50 of 500 to 1000 nM.
As to `COc1cc(-c2nn3ccc(C(=O)N(CCC(C)C)CCC(C)C)cc3c2CCCN2CCCCC2)cc(OC)c1OC` [Example 67], the IC50 is < 500 nM.
Under `CCCCCN(CCCCC)C(=O)c1ccn2nc(-c3cc(OC)c(OC)c(OC)c3)c(CCCN3CCCCC3)c2c1` [Example 68] stands 500 to 1000 nM; under `CCCCN(CCCC)C(=O)c1ccn2nc(-c3cc(OC)c(OC)c(OC)c3)c(/C=C/CN3CCCCC3)c2c1` [Example 69], 500 to 1000 nM; under `COc1cc(-c2nn3ccc(C(=O)N(CCC(C)C)CCC(C)C)cc3c2/C=C/CN2CCCCC2)cc(OC)c1OC` [Example 70], < 500 nM.
In turn, `CCCCCN(CCCCC)C(=O)c1ccn2nc(-c3cc(OC)c(OC)c(OC)c3)c(/C=C/CN3CCCCC3)c2c1` [Example 71] registered an IC50 of 1000 to 5000 nM.
With `CC(C)CCN(CCC(C)C)C(=O)c1ccn2nc(-c3cccc(Cl)c3)c(/C=C/CN3CCCCC3)c2c1` [Example 72, (E)-2-(3-chlorophenyl)-N,N-diisopentyl-3-(3-(piperidin-1-yl)prop-1-en-1-yl)pyrazolo[1,5-a]pyridine-5-carboxamide], the IC50 was 500 to 1000 nM.
`CC(C)CCN(CCC(C)C)C(=O)c1ccn2nc(-c3cccc(C(=O)O)c3)c(/C=C/CN3CCCCC3)c2c1` [Example 73] yielded an IC50 of 1000 to 5000 nM.
As for `CC(C)CCN(CCC(C)C)C(=O)c1ccn2nc(-c3cccc(C(=O)O)c3)c(CCCN3CCCCC3)c2c1` [Example 74], the concentration for half-maximal inhibition (IC50) fell in the range of 1000 to 5000 nM.
Next, `CC(C)CCN(CCC(C)C)C(=O)c1ccn2nc(-c3ccc(C(=O)O)cc3)c(CCCN3CCCCC3)c2c1` [Example 75]: 1000 to 5000 nM; `CC(C)CCN(CCC(C)C)C(=O)c1ccn2nc(-c3ccc(OCc4ccccc4)cc3)c(/C=C/CN3CCCCC3)c2c1` [Example 76]: 1000 to 5000 nM.
As to `CC(C)CCN(CCC(C)C)C(=O)c1ccn2nc(-c3cccc(C(N)=O)c3)c(/C=C/CN3CCCCC3)c2c1` [Example 77], the IC50 was < 500 nM.
With `CC(C)CCN(CCC(C)C)C(=O)c1ccn2nc(-c3ccc(O)cc3)c(CCCN3CCCCC3)c2c1` [Example 78], the IC50 was < 500 nM.
Regarding `CCOc1ccc(-c2nn3ccc(C(=O)N(CCC(C)C)CCC(C)C)cc3c2/C=C/CN2CCC(F)(F)CC2)cc1` [Example 79], the IC50 was in the range of 5000 to 15000 nM.
For `CCOc1ccc(-c2nn3ccc(C(=O)N(CCC(C)C)CCC(C)C)cc3c2CCCN2CCC(F)(F)CC2)cc1` [Example 80], the IC50 was in the range of 5000 to 15000 nM.
Under `CCOc1ccc(-c2nn3ccc(C(=O)N(CCC(C)C)CCC(C)C)cc3c2/C=C/CN2CCC(C(F)(F)F)CC2)cc1` [Example 81] stands 5000 to 15000 nM; under `CCOc1ccc(-c2nn3ccc(C(=O)N(CCC(C)C)CCC(C)C)cc3c2CCCN2CCC(C(F)(F)F)CC2)cc1` [Example 82], 5000 to 15000 nM.
As to `CC(C)CCN(CCC(C)C)C(=O)c1ccn2nc(-c3cccc(Cl)c3)c(CCCN3CCCCC3)c2c1` [Example 83, 2-(3-Chlorophenyl)-N,N-diisopentyl-3-(3-(piperidin-1-yl)propyl)pyrazolo[1,5-a]pyridine-5-carboxamide], the IC50 is < 500 nM.
Under `COc1cc(OC)cc(-c2nn3ccc(C(=O)N(CCC(C)C)CCC(C)C)cc3c2/C=C/CN2CCCCC2)c1` [Example 84] stands < 500 nM; under `CCCCN(CCCC)C(=O)c1ccn2nc(-c3cc(OC)cc(OC)c3)c(/C=C/CN3CCCCC3)c2c1` [Example 85], 500 to 1000 nM.
As to `COc1cc(OC)cc(-c2nn3ccc(C(=O)N(CCC(C)C)CCC(C)C)cc3c2CCCN2CCCCC2)c1` [Example 86], the IC50 was < 500 nM.
`CCCCN(CCCC)C(=O)c1ccn2nc(-c3cc(OC)cc(OC)c3)c(CCCN3CCCCC3)c2c1` [Example 87] showed an IC50 of 1000 to 5000 nM.
Turning to `COc1ccc(-c2nn3ccc(C(=O)N(CCC(C)C)CCC(C)C)nc3c2/C=C/CN2CCCCC2)cc1` [Example 88, (E)-N,N-Diisopentyl-2-(4-methoxyphenyl)-3-(3-(piperidin-1-yl)prop-1-en-1-yl)pyrazolo[1,5-a]pyrimidine-5-carboxamide], the IC50 fell in the range of 1000 to 5000 nM.
For the molecule `CC(C)CCN(CCC(C)C)C(=O)c1ccn2nc(-c3cccc(C(N)=O)c3)c(CCCN3CCCCC3)c2c1` [Example 90], the IC50 is < 500 nM.
`CC(C)CCN(CCC(C)C)C(=O)c1ccn2nc(-c3ccc(C(N)=O)cc3)c(/C=C/CN3CCCCC3)c2c1` [Example 91] displayed an IC50 of 500 to 1000 nM.

In general, IC50 refers to the concentration needed to halve the response being measured. Read a low IC50 as greater potency.
